Reference: article PMC9102502, “The Influence of Selected Antipsychotic Drugs on Biochemical Aspects of Alzheimer’s Disease” (International Journal of Molecular Sciences, 2022)
Where two headings read alike, the source gives them in different places.

What was measured:
[1] = target: T1, recombinant human β-amyloid (1–42) (Homo sapiens, UniProt P05067); test: Beta-amyloid aggregation, Thioflavin T fluorescence; assay type: biochemical
T1 construct: recombinant human β-amyloid (1–42; ultrapure); purchased Sigma-Aldrich (St. Louis, MO, USA)
T1 sequence (P05067 672-713 limits assumed): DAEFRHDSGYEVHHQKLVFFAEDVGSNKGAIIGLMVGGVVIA
Protocol: Aβ42 peptide was dissolved in DMSO and left to hydrate for a few minutes. The solution was centrifuged at 10,000 rpm for 5 min at 4 °C to separate any precipitated material. The solution at a concentration of 220 μmol/L was stored in small aliquots at a temperature of −30 °C and before each experiment it was restored at 37 °C for 15 min. Test samples containing Aβ42 solution at the final concentration of 20 μmol/L was incubated with antipsychotics at concentrations equaling their TPC and 1/2 × TPC (v = 10 µL). The final volume of the test samples was 100 μL. The positive control constituted a sample of Aβ42 peptide, whereas the negative control contained tannic acid at the final concentrations of 0.1 µmol/L and 10 µmol/L. The fibrillation reaction was set up by addition of thioflavin ThT dye at a concentration of 5 µmol/L. The fluorescence intensity was measured at room temperature with Ex/Em = 440 nm/484 nm (Synergy H1; BioTek, Winooski, VT, USA). The measurements of fluorescence intensity expressed as relative fluorescence units (RFU) were taken at 10, 30, 60 and 90 min and then after 24 and 48 h. The fluorescence intensity measured for control equaled 100% of Aβ aggregation and it was used to estimate the inhibitory properties of the tested antipsychotics.

HUVEC cells = test: WST-1 viability under AAPH-induced oxidative stress, HUVEC; assay type: cell-based, human; details: AAPH 17.5 mmol/L, relative to pure medium control
Protocol: (§1) WST-1 assay (Takara, Takara Bio Europe, Saint-Germain-en-Laye, France) was used to assess the effects of antipsychotics on the growth of HUVEC and astrocytes. The experiments were conducted as described previously. HUVEC were seeded at a density of 7500 cells, and astrocytes at 5000 cells per well on 96-well microplates and cultured for 24 h followed by treatment with compounds at ½ × TPCmax and TPCmax or pure medium as a control (v = 100 μL) for another 24 h (37 °C, 5% CO2). Subsequently, the cells were washed with culture medium (100 μL) and WST-1 reagent diluted in medium (10 μL of reagent + 90 μL of medium) was added. The plates were incubated at 37 °C in 5% CO2 for another 90 min for HUVEC and 60 min for astrocytes. The absorbance was read at 450 nm using a microplate reader (iMARK, Bio-Rad, Hercules, CA, USA). The cells viability was expressed as a percentage of the control samples which constituted 100% viability.
(§2) Moreover, the WST-1 assay was used to evaluate potential protective effects of antipsychotics on the growth of HUVEC and astrocytes under conditions of AAPH-induced oxidative stress. The experimental conditions were the same as in viability studies. AA at the final concentration of 10 μg/mL was used as an antioxidant control. After reaching the confluence, the antipsychotics were added at concentrations equaling ½ × TPCmax and TPCmax. After 1 h incubation under standard conditions, 50 μL AAPH was added to the wells containing tested compounds or AA. The AAPH concentration was chosen on the basis of preliminary experiments—17.5 mmol/L in HUVEC experiments, and 15.0 mmol/L in the case of astrocytes.

[2] = target: T2, human erythrocyte acetylcholinesterase (Homo sapiens, UniProt P22303); test: AChE inhibition, modified Ellman's method; assay type: biochemical
T2 construct: solution of hemolyzed erythrocytes diluted 400-fold; from tissue; host or cells: hemolyzed erythrocytes from blood of healthy human donors
T2 sequence (P22303 32-617 isoform P22303-2 limits assumed): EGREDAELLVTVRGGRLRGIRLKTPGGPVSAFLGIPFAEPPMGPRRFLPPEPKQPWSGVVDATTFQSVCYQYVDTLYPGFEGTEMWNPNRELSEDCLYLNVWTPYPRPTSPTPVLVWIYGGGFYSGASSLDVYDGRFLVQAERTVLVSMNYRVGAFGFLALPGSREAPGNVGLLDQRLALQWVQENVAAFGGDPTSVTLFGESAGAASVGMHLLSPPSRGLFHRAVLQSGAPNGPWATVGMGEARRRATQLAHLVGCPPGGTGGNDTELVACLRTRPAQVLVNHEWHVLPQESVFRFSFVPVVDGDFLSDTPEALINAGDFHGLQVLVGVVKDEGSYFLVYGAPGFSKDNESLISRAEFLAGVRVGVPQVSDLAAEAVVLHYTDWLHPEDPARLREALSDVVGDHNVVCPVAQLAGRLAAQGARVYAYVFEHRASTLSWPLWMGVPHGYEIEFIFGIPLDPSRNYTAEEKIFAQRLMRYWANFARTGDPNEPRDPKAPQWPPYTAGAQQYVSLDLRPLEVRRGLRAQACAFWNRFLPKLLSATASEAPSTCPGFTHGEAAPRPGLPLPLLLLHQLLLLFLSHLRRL
Protocol: (§3) The activity of both cholinesterases (AChE and BuChE) were assessed spectrophotometrically according to the Ellman’s method with some modifications by Worek et al.. This test development included experimental determination of the optimal testing conditions. For all measurements, 37 °C was used as the best temperature for enzymatic determinations in material of human origin.
(§4) The solution of plasma 200-fold diluted with 0.9% NaCl and solution of hemolyzed erythrocytes diluted 400-fold with 0.9% were incubated (37 °C, 15 min) with 5 μL DTNB (0.01 mol/L) and 10 μL tested compound at a wider range of concentration than the therapeutic range in order to assess the overall effect of the compound on human esterases (AChE and BuChE). The controls without antipsychotics, containing only DTNB and diluted plasma or diluted solution of hemolyzed erythrocytes, were prepared. […] The final volume of a sample was 500 μL. […] The maximal velocity of the reaction was determined on the basis of changes in absorbance over time.
(§5) AChE SI (selectivity index) was calculated by using the following formula: SI = IC50 of BuChE/IC50 of AChE. However, BuChE SI was defined as IC50 of AChE/IC50 of BuChE. Maximal velocity (Vmax) and the Michaelis constant (Km) were calculated with the use of linear regression—according to the Hanes–Woolf plot.

AChE = AChE (Homo sapiens, UniProt P22303); test: Synergism of antipsychotics with donepezil/rivastigmine (binary mixtures), AChE; details: for CI (combination index), AChE: ComboSyn;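 as to all read-outs here: antipsychotic concentration kept fixed across all measurements, selected from estimated therapeutic plasma levels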
Sequence of AChE (P22303 32-617 isoform P22303-2 limits assumed): as above
From the text: (§6) In turn, the concentrations of antipsychotics were constant in every measurement, and were chosen on the basis of estimated therapeutic plasma concentrations.
(§7) Automatic simulation of synergism and antagonism at all doses or effect levels is possible by computer software, based on algorithms. Calculation of the combination index (CI) and isobologram analyses enable to quantitatively determine drug interactions, where CI < 1, =1 and >1 indicate synergism, additive effect and antagonism, respectively. […] The software also allowed us to display the dose–effect curve, the median–effect plot and the dose-reduction index (DRI) plot [36].

BuChE = BuChE (Homo sapiens, UniProt P06276); test: Synergism of antipsychotics with donepezil/rivastigmine (binary mixtures), BuChE; details: ComboSyn;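 also: combination index derived by median-effect analysis of combined drug effects on the cholinesterase, with values below 1 meaning synergism, exactly 1 additivity and above 1 antagonism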
Sequence of BuChE (P06276 29-602): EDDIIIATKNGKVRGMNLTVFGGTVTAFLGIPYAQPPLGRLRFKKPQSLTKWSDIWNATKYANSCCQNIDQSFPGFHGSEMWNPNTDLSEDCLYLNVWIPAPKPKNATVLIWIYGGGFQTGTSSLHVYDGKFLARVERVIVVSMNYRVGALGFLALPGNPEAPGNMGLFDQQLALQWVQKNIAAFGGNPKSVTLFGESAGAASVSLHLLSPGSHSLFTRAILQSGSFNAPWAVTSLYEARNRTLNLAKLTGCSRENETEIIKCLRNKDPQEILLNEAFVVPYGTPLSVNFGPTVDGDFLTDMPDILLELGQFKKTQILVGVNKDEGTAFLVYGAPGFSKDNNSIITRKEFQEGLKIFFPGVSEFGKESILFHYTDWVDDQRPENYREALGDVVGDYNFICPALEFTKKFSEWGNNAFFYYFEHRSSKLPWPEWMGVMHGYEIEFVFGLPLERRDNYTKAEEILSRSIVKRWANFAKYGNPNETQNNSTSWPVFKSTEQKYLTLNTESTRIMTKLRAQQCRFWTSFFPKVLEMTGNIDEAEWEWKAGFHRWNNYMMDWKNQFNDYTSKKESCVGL
From the text: as §6, §7

astrocytes = test: WST-1 viability under AAPH-induced oxidative stress, astrocytes; assay type: cell-based, human
Protocol: as §1, §2

[3] = target: T3, human plasma butyrylcholinesterase (Homo sapiens, UniProt P06276); test: BuChE inhibition, modified Ellman's method; assay type: biochemical; details: 200 µg/L; control 0.349 ± 0.013 A/min
T3 construct: The solution of plasma 200-fold diluted with 0.9% NaCl; from tissue; host or cells: citrated plasma from blood of healthy human donors
T3 sequence (P06276 29-602): as above
Protocol: as §3, §4, §5

[4] = TPC (bromperidol 25 μg/L, quetiapine 400 μg/L)
[5] = ½ × TPC (bromperidol 12.5 μg/L, quetiapine 200 μg/L)
[6] = donepezil 0.005 μmol/L + antipsychotic at TPCmax, CI < 1 synergism, > 1 antagonism
[7] = donepezil 0.01 μmol/L + antipsychotic at TPCmax
[8] = donepezil 0.02 μmol/L + antipsychotic at TPCmax
[9] = donepezil 0.05 μmol/L + antipsychotic at TPCmax
[10] = donepezil 0.1 μmol/L + antipsychotic at TPCmax
[11] = rivastigmine 5 μmol/L + antipsychotic at TPCmax
[12] = rivastigmine 10 μmol/L + antipsychotic at TPCmax
[13] = rivastigmine 15 μmol/L + antipsychotic at TPCmax
[14] = rivastigmine 25 μmol/L + antipsychotic at TPCmax
[15] = rivastigmine 40 μmol/L + antipsychotic at TPCmax
[16] = rivastigmine 75 μmol/L + antipsychotic at TPCmax
[17] = rivastigmine 100 μmol/L + antipsychotic at TPCmax
[18] = donepezil 2 μmol/L + antipsychotic at TPCmax
[19] = donepezil 5 μmol/L + antipsychotic at TPCmax
[20] = donepezil 10 μmol/L + antipsychotic at TPCmax
[21] = donepezil 20 μmol/L + antipsychotic at TPCmax
[22] = donepezil 100 μmol/L + antipsychotic at TPCmax
[23] = rivastigmine 0.05 μmol/L + antipsychotic at TPCmax
[24] = rivastigmine 0.1 μmol/L + antipsychotic at TPCmax
[25] = rivastigmine 0.25 μmol/L + antipsychotic at TPCmax
[26] = rivastigmine 0.5 μmol/L + antipsychotic at TPCmax
[27] = rivastigmine 0.75 μmol/L + antipsychotic at TPCmax
[28] = rivastigmine 1 μmol/L + antipsychotic at TPCmax
[29] = rivastigmine 2.5 μmol/L + antipsychotic at TPCmax

Row | Compound | viability of HUVEC under AAPH (HUVEC cells; [4]) | viability of HUVEC under AAPH (HUVEC cells; [5]) | CI (combination index), AChE (AChE; [6]) | CI (combination index), AChE (AChE; [7]) | CI (combination index), AChE (AChE; [8]) | CI (combination index), AChE (AChE; [9]) | CI (combination index), AChE (AChE; [10]) | CI (combination index), AChE (AChE; [11]) | CI (combination index), AChE (AChE; [12]) | CI (combination index), AChE (AChE; [13]) | CI (combination index), AChE (AChE; [14]) | CI (combination index), AChE (AChE; [15]) | CI (combination index), AChE (AChE; [16]) | CI (combination index), AChE (AChE; [17]) | CI (combination index), BuChE (BuChE; [18]) | CI (combination index), BuChE (BuChE; [19]) | CI (combination index), BuChE (BuChE; [20]) | CI (combination index), BuChE (BuChE; [21]) | CI (combination index), BuChE (BuChE; [22]) | CI (combination index), BuChE (BuChE; [23]) | other results
1 | OC1(c2ccc(Cl)c(C(F)(F)F)c2)CCN(CCCC(c2ccc(F)cc2)c2ccc(F)cc2)CC1 [Penfluridol, penfluridol] | 82.9% | 80.5% | 0.79 | 0.80 | 0.93 | 0.89 | 0.90 | > 2.50 | 0.75 | 0.73 | 0.92 | 0.97 | 1.06 | 1.06 | 1.21 | 0.98 | 1.04 | 1.03 | 1.21 | 0.64 | effect on Aβ aggregation within 10–90 min ([1]; 25 µg/L, at any of these time points): does not inhibit; AChE reaction velocity [2]: 0.226 ± 0.012 A/min; Effect on IC50 AChE of rivastigmine (AChE; binary mixture vs pure rivastigmine ([…]), ↓ lower, ↑ higher IC50, - no change): does not affect; CI (combination index), BuChE (BuChE; donepezil 50 μmol/L + antipsychotic at TPCmax): 1.14; CI (combination index), BuChE (BuChE; [24]): 0.68; CI (combination index), BuChE (BuChE; [25]): 0.79; CI (combination index), BuChE (BuChE; [26]): 1.01; CI (combination index), BuChE (BuChE; [27]): 1.08; CI (combination index), BuChE (BuChE; [28]): 1.13; CI (combination index), BuChE (BuChE; [29]): 1.28; CI (combination index), BuChE (BuChE; [11]): 1.17; astrocyte viability compared with the control (pure AAPH) (astrocytes; benperidol 5 and 10 μg/L, penfluridol 12.5 μg/L, pimozide 15 μg/L, promazine 25 and 50 μg/L): statistically significant increase
2 | O=C(CCCN1CCC(O)(c2ccc(Br)cc2)CC1)c1ccc(F)cc1 [Bromperidol, bromperidol] | 82.5% | 66.8% | 0.07 | 0.78 | 0.81 | 0.81 | 0.80 | 0.32 | 0.38 | 0.46 | 0.50 | 0.53 | 0.55 | 0.60 | 0.43 | 0.52 | 0.57 | 0.70 | 0.89 | 0.18 | percentage value of Aβ inhibition ([1]; 12.5 μg/L, 48 h, compared with the control (100% Aβ aggregation)): 51.2%; effect on Aβ aggregation after a longer incubation time ([1]; 24 and 48 h, both tested concentrations): substantially inhibit; AChE reaction velocity ([2]; 200 µg/L, control 0.236 ± 0.032 A/min): 0.228 ± 0.029 A/min; BuChE reaction velocity [3]: 0.230 ± 0.023 A/min; CI (combination index), AChE (AChE; rivastigmine 50 μmol/L + antipsychotic at TPCmax): 0.49; CI (combination index), BuChE (BuChE; [24]): 0.30; CI (combination index), BuChE (BuChE; [25]): 0.57; CI (combination index), BuChE (BuChE; [26]): 0.74; CI (combination index), BuChE (BuChE; [27]): 0.86; CI (combination index), BuChE (BuChE; [28]): 0.92; CI (combination index), BuChE (BuChE; [29]): 0.96; CI (combination index), BuChE (BuChE; [11]): 0.96; astrocyte viability under AAPH (astrocytes; ½ × TPC (benperidol 5 μg/L, bromperidol 12.5 μg/L), AAPH 15 mmol/L): 68.9%
